# From article PMC7419507, “In vitro Cas9-assisted editing of modular polyketide synthase genes to produce desired natural product derivatives” (Nature Communications, 2020)
# “And” between values parts separate entries of the source, which are not always exact repeats. Equal values may be shown once.
# Experiments:
# [1] = Cytotoxicity assay (CellTiter-Glo, 72 h), MESO-1; type: cell-based; details: human, MESO-1 malignant pleural mesothelioma cells, raw replicate data, read-out: MESO1 viability (%)
# Summary of the method: (§1)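 Incubate 4 h at 37 °C, 5% CO2. Add 2-fold compound dilutions, 0.5% DMSO. After 72 h, read CellTiter-Glo luminescence.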
# [2] = Cytotoxicity assay (CellTiter-Glo, 72 h), SKOV-3; type: cell-based, human; details: human
# Summary of the method: as §1
# [3] = tested on: human ovarian adenocarcinoma SKOV-3 cells; experiment: Cytotoxicity assay (CellTiter-Glo, 72 h), SKOV-3; type: cell-based; details: raw replicate data
# Summary of the method: as §1
smiles,measurement,setting,value
"COC1CC2CCC(C)C(O)(O2)C(=O)C(=O)N2CCCCC2C(=O)OC(C(C)CC2CCC(O)C(OC)C2)CCC(C)C=C(C)C(O)C(OC)C(=O)C(C)CC(C)C=CC=CC=C1C (stereo not shown) [Compound 16, 32-desketorapamycin]","viability at 72 h, 0.0244141 uM",[1]; conc 0.0244141 uM,74.4%
same,"viability at 72 h, 0.0488281 uM",[1]; conc 0.0488281 uM,72.5%
same,"viability at 72 h, 0.0976562 uM",[1]; conc 0.0976562 uM,78.4%
same,"viability at 72 h, 0.195312 uM",[1]; conc 0.195312 uM,68.5%
same,"viability at 72 h, 0.390625 uM",[1]; conc 0.390625 uM,78.4%
same,"viability at 72 h, 0.78125 uM",[1]; conc 0.78125 uM,66.1%
same,"viability at 72 h, 1.5625 uM",[1]; conc 1.5625 uM,73.1%
same,"viability at 72 h, 3.125 uM",[1]; conc 3.125 uM,67.9%
same,"viability at 72 h, 6.25 uM",[1]; conc 6.25 uM,67.3%
same,"viability at 72 h, 12.5 uM",[1]; conc 12.5 uM,59.2%
same,"viability at 72 h, 25 uM",[1]; conc 25 uM,53.2%
same,"viability at 72 h, 50 uM",[1]; conc 50 uM,31.7%
same,viability at 72 h,"[2]; SKOV-3 cells (ovarian adenocarcinoma), SKOV-3 cells, 72 h, read-out: Plateau level of cell viability in the dose-response curve",~60%
same,"viability at 72 h, 9.53674e-05 uM","[2]; SKOV-3 cells (ovarian adenocarcinoma), conc 9.53674e-5 uM, raw replicate data, read-out: SKOV3 viability (%)",102%
same,"viability at 72 h, 0.000190735 uM","[2]; SKOV-3 cells (ovarian adenocarcinoma), conc 0.000190735 uM, raw replicate data, read-out: SKOV3 viability (%)",96.2%
same,"viability at 72 h, 0.00038147 uM","[2]; SKOV-3 cells (ovarian adenocarcinoma), conc 0.00038147 uM, raw replicate data, read-out: SKOV3 viability (%)",97.4%
same,"viability at 72 h, 0.000762939 uM","[2]; SKOV-3 cells (ovarian adenocarcinoma), conc 0.000762939 uM, raw replicate data, read-out: SKOV3 viability (%)",84.9%
same,"viability at 72 h, 0.00152588 uM","[2]; SKOV-3 cells (ovarian adenocarcinoma), conc 0.00152588 uM, raw replicate data, read-out: SKOV3 viability (%)",77.3%
same,"viability at 72 h, 0.00305176 uM","[2]; SKOV-3 cells (ovarian adenocarcinoma), conc 0.00305176 uM, raw replicate data, read-out: SKOV3 viability (%)",68.9%
same,"viability at 72 h, 0.00610352 uM","[2]; SKOV-3 cells (ovarian adenocarcinoma), conc 0.00610352 uM, raw replicate data, read-out: SKOV3 viability (%)",59%
same,"viability at 72 h, 0.012207 uM","[2]; SKOV-3 cells (ovarian adenocarcinoma), conc 0.012207 uM, raw replicate data, read-out: SKOV3 viability (%)",61.7%
same,"viability at 72 h, 0.0244141 uM","[2]; SKOV-3 cells (ovarian adenocarcinoma), conc 0.0244141 uM, raw replicate data, read-out: SKOV3 viability (%)",60%
same,"viability at 72 h, 0.0488281 uM","[2]; SKOV-3 cells (ovarian adenocarcinoma), conc 0.0488281 uM, raw replicate data, read-out: SKOV3 viability (%)",59.3%
same,"viability at 72 h, 0.0976562 uM","[2]; SKOV-3 cells (ovarian adenocarcinoma), conc 0.0976562 uM, raw replicate data, read-out: SKOV3 viability (%)",58.2%
same,"viability at 72 h, 0.195312 uM","[2]; SKOV-3 cells (ovarian adenocarcinoma), conc 0.195312 uM, raw replicate data, read-out: SKOV3 viability (%)",56.3%
same,"viability at 72 h, 0.390625 uM","[2]; SKOV-3 cells (ovarian adenocarcinoma), conc 0.390625 uM, raw replicate data, read-out: SKOV3 viability (%)",55.6%
same,"viability at 72 h, 12.5 uM","[2]; SKOV-3 cells (ovarian adenocarcinoma), conc 12.5 uM, raw replicate data, read-out: SKOV3 viability (%)",51.2%
same,"viability at 72 h, 25 uM","[2]; SKOV-3 cells (ovarian adenocarcinoma), conc 25 uM, raw replicate data, read-out: SKOV3 viability (%)",45.3%
same,"viability at 72 h, 50 uM","[2]; SKOV-3 cells (ovarian adenocarcinoma), conc 50 uM, raw replicate data, read-out: SKOV3 viability (%)",39.9%
same,"viability at 72 h, 0.78125 uM","[2]; SKOV-3 ovarian adenocarcinoma cells, conc 0.78125 uM, raw replicate data, read-out: SKOV3 viability (%)",57.3%
same,"viability at 72 h, 1.5625 uM","[2]; SKOV-3 ovarian adenocarcinoma cells, conc 1.5625 uM, raw replicate data, read-out: SKOV3 viability (%)",55%
same,"viability at 72 h, 3.125 uM","[2]; SKOV-3 ovarian adenocarcinoma cells, conc 3.125 uM, raw replicate data, read-out: SKOV3 viability (%)",57.8%
same,"viability at 72 h, 6.25 uM","[2]; SKOV-3 ovarian adenocarcinoma cells, conc 6.25 uM, raw replicate data, read-out: SKOV3 viability (%)",57%
same,SKOV3 viability (%),[3]; conc 9.53674e-5 uM,103.5% and 99.3%
same,SKOV3 viability (%),[3]; conc 0.000190735 uM,92.3% and 95.8%
same,SKOV3 viability (%),[3]; conc 0.00038147 uM,95.4% and 93.0%
same,SKOV3 viability (%),[3]; conc 0.000762939 uM,86.5% and 80.1%
same,SKOV3 viability (%),[3]; conc 0.00152588 uM,73.2% and 83.0%
same,SKOV3 viability (%),[3]; conc 0.00305176 uM,64.2% and 71.1%
same,SKOV3 viability (%),[3]; conc 0.00610352 uM,65.5% and 65.6%
same,SKOV3 viability (%),[3]; conc 0.012207 uM,60.5% and 55.5%
same,SKOV3 viability (%),[3]; conc 0.0244141 uM,61.8% and 57.1%
same,SKOV3 viability (%),[3]; conc 0.0488281 uM,55.9% and 56.4%
same,SKOV3 viability (%),[3]; conc 0.0976562 uM,56.0% and 58.1%
same,SKOV3 viability (%),[3]; conc 0.195312 uM,52.7% and 56.6%
same,SKOV3 viability (%),[3]; conc 0.390625 uM,55.9% and 59.7%
same,SKOV3 viability (%),[3]; conc 0.78125 uM,59.7% and 56.2%
same,SKOV3 viability (%),[3]; conc 1.5625 uM,58.0% and 59.2%
same,SKOV3 viability (%),[3]; conc 3.125 uM,56.1% and 56.8%
same,SKOV3 viability (%),[3]; conc 12.5 uM,53.9% and 55.3%
same,SKOV3 viability (%),[3]; conc 25 uM,51.8% and 53.0%
same,SKOV3 viability (%),[3]; conc 50 uM,34.7% and 38.6%
